Results taken from publication PMC9276671, “A first-in-human Phase I dose-escalation trial of the novel therapeutic peptide, ALM201, demonstrates a favourable safety profile in unselected patients with ovarian cancer and other advanced solid tumours” (British Journal of Cancer, 2022).
Where two headings read alike, the source gives them in different places. No end group written: not given here.

What was measured:
[1] = Rat, 5mg/kg SC, male animals; ref Investigator brochure (IB); cited from earlier work
[2] = Dog, 5mg/kg SC, male animals; ref Investigator brochure (IB); cited from earlier work
[3] = Mouse, 3mg/kg SC, male animals; ref Investigator brochure (IB); cited from earlier work
[4] = ref Investigator brochure (IB), cited from earlier work
Method: page 40: Almac Discovery Confidential (i) a […] dose ranging study in rats, dose range 5-50 mg/kg/day; (ii) a non-GLP dose ranging study in dogs, dose range 15-50 mg/kg/day; (iii) a GLP 28-day study in rats, dose range 5-50 mg/kg/day; (iv) a GLP 28-day study in dogs, dose range 5-50 mg/kg/day; (v) a non-GLP wound healing study in rats, dose range 5-50 mg/kg/day. In the rat dose range finding study, administration of doses of up to 50 mg/kg/day for 14 days were assessed. ALM201 was well tolerated at all doses and the No Observable Adverse Effect Level (NOAEL) was considered to be 50 mg/kg/d ...

advanced solid tumours = test: Tumour response by RECIST 1.1; assay type: in vivo, human
Method: Tumour assessment by imaging (CT scan or MRI scan as appropriate for tumour type) was assessed in all patients at initial screening and after every two cycles of treatment (i.e., every 6 weeks) during cycles 1–8 (i.e., first 24 weeks), and then after every four cycles of treatment (i.e., every 12 weeks) from cycle nine onwards. Scans were reported according to RECIST version 1.1.

[5] = system: HMEC-1, a human vascular endothelial cell-line; details: protocol Table 3; ref Investigator brochure (IB); read-out: Wound scrape IC50; cited from earlier work
Source text: page 37: Almac Discovery Confidential There are five main histological subtypes of ovarian cancer differing in tissue of origin, stage of presentation, sensitivity to chemotherapy, survival and driver genetic mutations. The most aggressive of these subtypes are the high grade serous tumours. […] ALM201 also had no effect on cytok ...

rat aorta = details: ex vivo rat aorta in Matrigel, 7-day period, depending on the parameter assessed; ref Investigator brochure (IB); read-out: IC50 for tubule out-growth parameters; cited from earlier work
Source text: (§1) ALM201 also had no effect on cytok ...

[6] = system: invasion stimulated by VEGF, EGF, FGF, PFGF and FCS; details: 10^-9 M (exponent printed displaced), ref Investigator brochure (IB); cited from earlier work
Source text: as §1

HMEC-1 cells = details: same concentration range, range of growth factors, ref Investigator brochure (IB); cited from earlier work
Source text: as §1

proliferation = details: protocol Table 3; ref Investigator brochure (IB); cited from earlier work
Source text: as §1

HMEC-1 = details: protocol Table 3; ref Investigator brochure (IB); read-out: Tube formation IC50; cited from earlier work
Source text: as §1

cell viability = details: protocol Table 2; ref Investigator brochure (IB); cited from earlier work
Source text: as §1

cell cycle = details: protocol Table 2 (IC50 (nM)); ref Investigator brochure (IB); cited from earlier work
Source text: as §1

[7] = system: ovarian patient-derived xenograft models; details: cited from earlier work
heparinised human blood = details: alone or with Staphylococcus Enterotoxin B, 10^-8 to 10^-6 M, ref Investigator brochure (IB); cited from earlier work
[8] = system: angiogenesis and cell migration and invasion; details: cited from earlier work
Source text: Early investigations into the mechanism of action for ALM201 reported that the peptide is internalised into CD44-expressing cells and targets microtubules inhibiting migration and invasion in cancer and endothelial cells, similar to vascular disrupting agents. However, it was unclear if this was the principal mechanism of inhibiting angiogenesis or if other factors, such as inhibiting endothelial cell migration and inva ...

[9] = Urinary excretion of unchanged ALM201 (LC-MS/MS); assay type: in vivo; details: human, sc, patients with positive urine concentrations, urine collected over 6 h after dosing, day 1 cycle 1, read-out: Amount excreted in the urine, % of the administered dose, mean (±SD)

## IRQQPRDPPTETLELEVSPDPAS [ALM201]
[1]
  AUC24: 4320 ng·h/mL
  Cmax: 3400 ng/mL
  Half-life: 36 min
  Tmax: 30 min
[2]
  AUC24: 7300 ng·h/mL
  Cmax: 2030 ng/mL
  Half-life: 144 min
  Tmax: 60 min
[3]
  AUC24 (figure is for AUC0-∞): 2166 ng·h/mL
  Cmax: 3477 ng/mL
  Half-life: 12 min
  Tmax: 10 min
[4]; beagle dog dose range finding, 15 and 50 mg/kg/day for 14 days
  NOAEL: 50 mg/kg/day
[4]; dog GLP 28 days plus recovery, 5, 15 and 50 mg/kg/day
  NOAEL: 50 mg/kg/day
[4]; rat GLP 28 days plus recovery, 5, 15 and 50 mg/kg/day
  NOAEL: 50 mg/kg/day
[4]; rat dose range finding study, up to 50 mg/kg/day for 14 days
  NOAEL: 50 mg/kg/day
[4]; rat, 5 and 50 mg/kg/day for up to 18 days, versus vehicle controls
  Effect on wound closure or tensile strength: No effect
Advanced solid tumours; 7/20 patients, stable disease for up to four cycles
  Stable disease / disease control rate: 35%
Advanced solid tumours; 12 of 20 patients
  Disease progression: 60%
Advanced solid tumours; all patients
  Partial or complete responses: No partial or complete responses
Advanced solid tumours; in vivo
  Patients with SD until the end of cycle 4: Three
[5]
  IC50: 0.009 nM
Rat aorta
  IC50: 0.005 to 0.02 nM
[6]
  Invasion: inhibit invasion
HMEC-1 cells
  Effect on cell proliferation or cell cycle: no effect
proliferation
  Proliferation IC50: No effect
HMEC-1
  IC50: 0.082 nM
Cell viability
  Cell viability IC50: No effect
Cell cycle
  Cell cycle arrest: No effect
[7]
  Tumour growth inhibition: > 60%
Heparinised human blood
  Effect on cytokine release and T-cell proliferation: no effect
[8]
  Activity in standard in vitro and ex vivo assays of angiogenesis, cell migration and invasion: low picomolar activity
[9]
  dose excreted: 0.074%
